# Test results reported in article PMC7871391, “The novel TRPA1 antagonist BI01305834 inhibits ovalbumin-induced bronchoconstriction in guinea pigs” (Respiratory Research, 2021).
# pIC50: −log10 of the molar value.
# Experiments:
# TRPA1 = system: TRPA1; set-up: method as in PMID 17686976, PMID 18954467; details: TRPA1-mediated calcium flux ref 46, 47; cited from earlier work
# guinea-pig lung slices = assay: TRPA1 agonism in lung slices (airway narrowing, histamine release); details: data not shown
# Description: Lung slices were used for OA and histamine induced airway narrowing studies. In order to do this, lung slices were placed in 1 ml medium and fixed with a plastic ring. After 30 min pre-treatment with the TRPA1 antagonist BI01305834 (0.01, 0.1, 1 or 10 µM) or the vehicle (10% cyclodextrin) OA (10^–5-10^2 µg.ml^−1) or histamine (10^–8-10^–2 M) dose–response curves were established. Using a microscope (Eclipse, TS100; Nikon) time-lapse images (1 frame per 2 s) of the lung slices were captured. The airway luminal area was quantified using image acquisition software (NIS-elements; Nikon) and expressed as percentage of basal area, as described previously.
# Lung slices were used for OA-induced histamine determinations, with separate slices for each condition individually. BI01305834 and vehicle pre-treated lung slices were challenged with OA (10 µg.ml^−1) for 5 min. […] Histamine levels of original supernatant and homogenized lung slice supernatant were assessed by liquid chromatography in combination with isotope dilution tandem mass spectrometry (LC–MS/MS). […] Inter-assay imprecision (n = 20 days) was < 2.9% at three different levels (60, 986, 3873 nM, respectively) and limit of quantification was 3.0 nM. Histamine release was calculated as percentage of total histamine present in both supernatant and slice. […]
Structure (SMILES),pIC50 (TRPA1),induction of airway narrowing (guinea-pig lung slices),induction of histamine release (guinea-pig lung slices)
CC(C)c1ccc(NC(=O)Cn2cnc3c2c(=O)n(C)c(=O)n3C)cc1 [HC030031],5.12 to 5.21,,
"C=CCN=C=S [AITC, allyl isothiocyanate]",,unable to induce,unable to induce
